Measurements published in patent US20250368639A1, “SOLID FORMS OF A COMPOUND FOR TREATING OR PREVENTING HYPERURICEMIA OR GOUT” (ATOM THERAPEUTICS CO., LTD, priority 2022, published 2025).
Converted amounts (≈) assume the structure as drawn.

Legend:
[1] = Visual solubility of Form 1 in common solvents; type: physicochemical; conditions: thermodynamic from solid
Method: Solubility of Form 1 was tested visually. About 5 mg of Form I was accurately weighed into a glass vial of 5 ml. Small amounts of solvent was added gradually into the vial until the compound was dissolved or when the total amount added reached 5 ml. The cumulative volume of the solvent was recorded.

[2] = Heating study of Form 1; type: physicochemical; conditions: 110° C. about 10 minutes / 100° C. 20 minutes
Method: About 150 mg of Form 1 was heated to 110° C. and maintained for about 10 minutes. The sample color changed from light yellow to dark yellow. The darker sample was evaluated with XRPD. The sample color changed back to light yellow at the conclusion of the XRPD evaluation, which was similar to the color before the heating treatment. […] Another sample of Form 1 was heated in an oven at 100° C. for 20 minutes and subsequently analyzed for the moisture content using KF method. The moisture content of heated Form 1 was 6.8%. […] The product is unstable and will rapidly absorb water.

CCc1nc2ccccn2c1C(=O)c1cc(Br)c(O)c(C#N)c1 [Form 1, 3-bromo-5-[(2-ethylimidazo[1,2-a]pyridin-3-yl)carbonyl]-2-hydroxybenzonitrile]
Solubility ([1]; acetone, organic solvent or mixture): < 1000 µg/mL
Solubility ([1]; acetone:water 3:1, organic solvent or mixture, Acetone:water = 3:1): < 1000 µg/mL
Solubility ([1]; acetonitrile (ACN), organic solvent or mixture): < 1000 µg/mL
Solubility ([1]; dichloromethane (DCM), organic solvent or mixture): < 1000 µg/mL
Solubility ([1]; dimethylformamide (DMF), organic solvent or mixture): > 25000 µg/mL
Solubility ([1]; dimethylsulfoxide (DMSO), organic solvent or mixture): > 25000 µg/mL
Solubility ([1]; ethanol, organic solvent or mixture, Ethanol (EtOH)): < 1000 µg/mL
Solubility ([1]; ethyl acetate, organic solvent or mixture, Ethyl acetate (EtAc)): < 1000 µg/mL
Solubility ([1]; heptane, organic solvent or mixture): < 1000 µg/mL
Solubility ([1]; isopropyl alcohol, organic solvent or mixture): < 1000 µg/mL
Solubility ([1]; methanol, organic solvent or mixture, Methanol (MeOH)): < 1000 µg/mL
Solubility ([1]; methanol:water 3:1, organic solvent or mixture, Methanol:water = 3:1): < 1000 µg/mL
Solubility ([1]; methyl ethyl ketone (MEK), organic solvent or mixture): < 1000 µg/mL
Solubility ([1]; tetrahydrofuran (THF), organic solvent or mixture): ~3000 µg/mL (≈ 8100 µM)
Solubility ([1]; toluene, organic solvent or mixture): < 1000 µg/mL
Solubility ([1]; water, Water (H2O)): < 1000 µg/mL
Behaviour upon heating [2]: may lose water upon heating
